In the kinase profiling compilation of Christmann-Franck et al. (2016):

Tests used:
Test in all cases: KINOMEscan competition binding
Conditions in all cases: compound 0.1 µM
[1] = molecular target: MKNK1 (human) (UniProt Q9BUB5)
[2] = molecular target: IRAK3 (human) (UniProt Q9Y616)
[3] = molecular target: PRPF4B (human) (UniProt Q13523)
[4] = molecular target: STK32C (human) (UniProt Q86UX6)
[5] = molecular target: PRKAA1 (human) (UniProt Q13131)
[6] = molecular target: MYLK3 (human) (UniProt Q32MK0)
[7] = molecular target: CDK16 (human) (UniProt Q00536)
[8] = system: PIK3CA (human), P42336 [E545K]
[9] = molecular target: FGFR3 (human) (UniProt P22607)
[10] = molecular target: TLK1 (human) (UniProt Q9UKI8)
[11] = molecular target: JAK3 JH1 catalytic (human) (UniProt P52333)
[12] = molecular target: RPS6KA2 KD1 (human) (UniProt Q15349)
[13] = molecular target: EPHA4 (human) (UniProt P54764)
[14] = molecular target: BLK (human) (UniProt P51451)
[15] = molecular target: PAK6 (human) (UniProt Q9NQU5)
[16] = molecular target: SRPK2 (human) (UniProt P78362)
[17] = molecular target: STK17B (human) (UniProt O94768)
[18] = molecular target: MST1R (human) (UniProt Q04912)
[19] = molecular target: WNK1 (human) (UniProt Q9H4A3)
[20] = molecular target: PRKAA2 (human) (UniProt P54646)
[21] = molecular target: MAP3K9 (human) (UniProt P80192)
[22] = system: ABL1 (human), P00519 [F317I]
[23] = molecular target: PRKCH (human) (UniProt P24723)
[24] = system: ABL1 (human), P00519 [Q252H]
[25] = molecular target: WEE2 (human) (UniProt P0C1S8)
[26] = molecular target: YES1 (human) (UniProt P07947)
[27] = molecular target: MAPK8 (human) (UniProt P45983)
[28] = molecular target: MAPK1 (human) (UniProt P28482)
[29] = molecular target: GRK7 (human) (UniProt Q8WTQ7)
[30] = molecular target: FGR (human) (UniProt P09769)
[31] = molecular target: LIMK2 (human) (UniProt P53671)
[32] = molecular target: CDK4 CCND1 (human) (UniProt P11802+P24385)
[33] = molecular target: PIP5K1A (human) (UniProt Q99755)
[34] = molecular target: MET (human) (UniProt P08581)
[35] = molecular target: CSNK1D (human) (UniProt P48730)
[36] = molecular target: CAMK2D (human) (UniProt Q13557)
[37] = molecular target: MAPK13 (human) (UniProt O15264)
[38] = molecular target: MAP3K12 (human) (UniProt Q12852)
[39] = system: KIT (human), P10721 [D816V]
[40] = molecular target: LYN (human) (UniProt P07948)

Chain of STK32C (human) (Q86UX6 whole entry, looked up): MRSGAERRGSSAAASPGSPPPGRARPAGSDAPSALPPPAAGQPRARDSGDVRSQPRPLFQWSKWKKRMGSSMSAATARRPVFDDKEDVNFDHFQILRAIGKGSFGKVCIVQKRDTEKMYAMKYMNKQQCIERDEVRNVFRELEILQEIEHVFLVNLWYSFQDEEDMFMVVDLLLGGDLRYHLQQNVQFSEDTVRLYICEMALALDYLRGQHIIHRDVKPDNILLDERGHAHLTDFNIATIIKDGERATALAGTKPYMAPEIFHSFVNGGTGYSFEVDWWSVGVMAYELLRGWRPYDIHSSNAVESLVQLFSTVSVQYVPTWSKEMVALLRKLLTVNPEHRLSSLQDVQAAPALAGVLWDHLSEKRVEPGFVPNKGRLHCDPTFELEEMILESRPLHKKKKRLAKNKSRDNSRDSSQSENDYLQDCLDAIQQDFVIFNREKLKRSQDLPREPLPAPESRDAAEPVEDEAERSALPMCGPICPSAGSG
Chain of CDK16 (human) (Q00536 whole entry, looked up): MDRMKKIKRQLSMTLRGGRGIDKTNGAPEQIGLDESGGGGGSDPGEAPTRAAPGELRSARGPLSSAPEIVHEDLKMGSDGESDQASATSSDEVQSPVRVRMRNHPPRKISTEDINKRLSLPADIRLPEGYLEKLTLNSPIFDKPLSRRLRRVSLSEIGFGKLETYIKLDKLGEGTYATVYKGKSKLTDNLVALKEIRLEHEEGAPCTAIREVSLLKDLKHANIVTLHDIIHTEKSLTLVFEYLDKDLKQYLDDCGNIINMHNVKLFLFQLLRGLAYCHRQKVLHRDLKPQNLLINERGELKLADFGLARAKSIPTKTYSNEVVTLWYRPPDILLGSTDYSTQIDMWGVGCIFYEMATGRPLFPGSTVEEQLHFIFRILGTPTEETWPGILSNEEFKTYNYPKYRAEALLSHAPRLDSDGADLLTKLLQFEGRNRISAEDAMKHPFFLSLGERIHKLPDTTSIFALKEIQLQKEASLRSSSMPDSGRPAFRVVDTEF
Chain of PRKAA2 (human) (P54646 whole entry, looked up): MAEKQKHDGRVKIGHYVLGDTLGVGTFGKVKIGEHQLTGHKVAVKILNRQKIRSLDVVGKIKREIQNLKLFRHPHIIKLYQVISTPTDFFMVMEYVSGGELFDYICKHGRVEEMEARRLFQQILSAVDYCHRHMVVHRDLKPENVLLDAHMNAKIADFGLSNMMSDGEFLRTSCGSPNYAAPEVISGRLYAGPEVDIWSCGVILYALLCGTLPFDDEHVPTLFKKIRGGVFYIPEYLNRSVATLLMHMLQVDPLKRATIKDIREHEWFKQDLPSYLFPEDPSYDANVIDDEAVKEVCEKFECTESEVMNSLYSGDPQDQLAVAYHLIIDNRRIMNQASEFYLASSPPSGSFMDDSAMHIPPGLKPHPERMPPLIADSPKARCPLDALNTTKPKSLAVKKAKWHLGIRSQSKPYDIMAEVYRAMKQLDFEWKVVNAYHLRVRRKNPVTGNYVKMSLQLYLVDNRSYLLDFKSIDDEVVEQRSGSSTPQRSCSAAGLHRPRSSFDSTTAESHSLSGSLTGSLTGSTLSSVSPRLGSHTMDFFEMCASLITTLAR
Chain of LIMK2 (human) (P53671 whole entry, looked up): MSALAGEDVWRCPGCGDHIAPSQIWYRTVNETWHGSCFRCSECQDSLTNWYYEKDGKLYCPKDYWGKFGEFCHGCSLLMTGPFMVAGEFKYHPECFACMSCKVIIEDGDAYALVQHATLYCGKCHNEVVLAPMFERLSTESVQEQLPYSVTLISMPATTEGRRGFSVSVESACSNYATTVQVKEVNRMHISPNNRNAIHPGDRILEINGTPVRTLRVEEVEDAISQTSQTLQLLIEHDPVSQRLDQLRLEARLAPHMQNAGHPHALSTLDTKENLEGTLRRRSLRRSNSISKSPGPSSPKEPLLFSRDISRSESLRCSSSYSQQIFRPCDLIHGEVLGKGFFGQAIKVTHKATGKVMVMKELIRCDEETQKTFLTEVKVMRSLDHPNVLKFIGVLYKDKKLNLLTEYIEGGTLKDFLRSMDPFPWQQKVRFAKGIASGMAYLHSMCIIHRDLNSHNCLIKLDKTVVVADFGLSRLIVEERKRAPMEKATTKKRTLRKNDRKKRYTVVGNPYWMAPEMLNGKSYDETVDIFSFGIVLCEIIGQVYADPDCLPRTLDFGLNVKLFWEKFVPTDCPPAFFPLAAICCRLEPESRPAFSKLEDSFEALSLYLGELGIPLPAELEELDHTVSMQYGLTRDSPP
Chain of MAP3K12 (human) (Q12852 whole entry, looked up): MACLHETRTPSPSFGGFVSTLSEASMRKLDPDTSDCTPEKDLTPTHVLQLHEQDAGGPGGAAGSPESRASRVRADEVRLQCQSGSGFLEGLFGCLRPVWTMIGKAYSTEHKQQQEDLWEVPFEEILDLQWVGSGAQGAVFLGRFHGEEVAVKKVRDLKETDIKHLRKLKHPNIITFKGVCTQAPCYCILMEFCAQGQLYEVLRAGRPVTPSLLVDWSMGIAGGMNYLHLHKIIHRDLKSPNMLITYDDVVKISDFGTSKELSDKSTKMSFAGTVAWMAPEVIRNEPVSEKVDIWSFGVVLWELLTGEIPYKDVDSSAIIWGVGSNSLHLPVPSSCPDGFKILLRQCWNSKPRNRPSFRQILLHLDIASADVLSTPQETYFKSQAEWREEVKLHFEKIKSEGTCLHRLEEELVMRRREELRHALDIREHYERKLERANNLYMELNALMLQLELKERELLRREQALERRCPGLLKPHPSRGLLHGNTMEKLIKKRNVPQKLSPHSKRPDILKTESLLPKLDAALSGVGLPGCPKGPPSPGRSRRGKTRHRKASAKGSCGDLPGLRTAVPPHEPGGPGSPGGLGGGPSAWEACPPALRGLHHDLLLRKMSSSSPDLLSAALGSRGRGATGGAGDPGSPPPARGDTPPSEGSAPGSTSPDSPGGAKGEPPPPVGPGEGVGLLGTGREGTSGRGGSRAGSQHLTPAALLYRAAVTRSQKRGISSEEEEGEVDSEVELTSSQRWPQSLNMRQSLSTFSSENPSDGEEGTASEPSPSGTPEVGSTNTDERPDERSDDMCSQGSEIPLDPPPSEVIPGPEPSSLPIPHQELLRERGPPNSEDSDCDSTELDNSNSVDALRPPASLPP
Chain of RPS6KA2 KD1 (human) (Q15349 whole entry, looked up): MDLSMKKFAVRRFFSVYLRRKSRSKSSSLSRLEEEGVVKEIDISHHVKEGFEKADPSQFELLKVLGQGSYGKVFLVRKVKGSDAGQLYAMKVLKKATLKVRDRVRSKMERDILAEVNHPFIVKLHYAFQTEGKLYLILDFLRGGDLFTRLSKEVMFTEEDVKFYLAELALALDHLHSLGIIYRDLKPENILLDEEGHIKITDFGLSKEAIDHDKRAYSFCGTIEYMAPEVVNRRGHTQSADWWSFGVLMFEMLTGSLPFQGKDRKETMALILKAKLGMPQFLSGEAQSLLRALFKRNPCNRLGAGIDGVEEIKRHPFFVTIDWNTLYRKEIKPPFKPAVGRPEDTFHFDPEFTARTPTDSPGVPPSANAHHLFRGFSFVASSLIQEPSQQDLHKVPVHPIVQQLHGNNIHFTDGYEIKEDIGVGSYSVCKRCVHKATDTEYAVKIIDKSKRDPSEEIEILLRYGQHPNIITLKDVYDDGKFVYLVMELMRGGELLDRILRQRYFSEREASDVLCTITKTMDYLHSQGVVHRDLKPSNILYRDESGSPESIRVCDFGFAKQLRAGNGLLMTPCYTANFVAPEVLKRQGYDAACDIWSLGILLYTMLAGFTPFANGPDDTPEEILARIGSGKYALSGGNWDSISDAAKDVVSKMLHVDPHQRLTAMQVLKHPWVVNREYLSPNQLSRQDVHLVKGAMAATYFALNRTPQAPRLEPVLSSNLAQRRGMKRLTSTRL
Chain of CSNK1D (human) (P48730 whole entry, looked up): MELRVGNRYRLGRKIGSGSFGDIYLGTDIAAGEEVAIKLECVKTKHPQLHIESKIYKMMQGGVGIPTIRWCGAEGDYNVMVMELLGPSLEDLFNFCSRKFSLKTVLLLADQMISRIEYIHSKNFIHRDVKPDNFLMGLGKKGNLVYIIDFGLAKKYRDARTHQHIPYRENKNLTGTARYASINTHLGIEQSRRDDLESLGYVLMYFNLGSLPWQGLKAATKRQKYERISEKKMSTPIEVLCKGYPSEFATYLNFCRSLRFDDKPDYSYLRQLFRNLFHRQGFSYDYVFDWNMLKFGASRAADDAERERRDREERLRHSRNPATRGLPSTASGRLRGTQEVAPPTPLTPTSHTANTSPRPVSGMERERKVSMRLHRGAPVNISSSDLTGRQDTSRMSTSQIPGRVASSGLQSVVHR
Chain of PRKCH (human) (P24723 whole entry, looked up): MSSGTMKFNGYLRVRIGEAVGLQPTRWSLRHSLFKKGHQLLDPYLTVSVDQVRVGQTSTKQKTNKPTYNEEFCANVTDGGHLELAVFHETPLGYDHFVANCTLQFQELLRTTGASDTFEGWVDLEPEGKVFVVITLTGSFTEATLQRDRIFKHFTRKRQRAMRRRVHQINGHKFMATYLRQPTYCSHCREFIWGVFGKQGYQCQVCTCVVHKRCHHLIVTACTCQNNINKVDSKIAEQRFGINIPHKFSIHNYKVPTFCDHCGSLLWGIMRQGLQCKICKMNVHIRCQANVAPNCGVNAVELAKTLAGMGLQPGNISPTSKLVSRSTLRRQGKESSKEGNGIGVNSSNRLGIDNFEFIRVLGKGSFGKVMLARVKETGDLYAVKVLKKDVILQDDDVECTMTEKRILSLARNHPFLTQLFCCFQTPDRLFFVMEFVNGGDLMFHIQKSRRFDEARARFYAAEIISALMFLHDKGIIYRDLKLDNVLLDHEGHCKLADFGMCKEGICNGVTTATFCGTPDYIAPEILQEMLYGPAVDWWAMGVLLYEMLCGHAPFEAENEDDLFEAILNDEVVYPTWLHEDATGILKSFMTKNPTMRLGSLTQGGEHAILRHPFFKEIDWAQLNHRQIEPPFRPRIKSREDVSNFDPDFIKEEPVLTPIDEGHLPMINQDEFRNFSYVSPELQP

## CCc1ccc(C(=O)Nc2cc(CN3CCN(C)CC3)cc(C(F)(F)F)c2)cc1C#Cc1cnc2ccnn2c1
[1]
  kinase still bound, per cent of control: 91%
[2]
  kinase still bound, per cent of control: 80%
[3]
  kinase still bound, per cent of control: 75%
[4]
  kinase still bound, per cent of control: 96%
[5]
  kinase still bound, per cent of control: 83%
[6]
  kinase still bound, per cent of control: 100%
[7]
  kinase still bound, per cent of control: 100%
[8]
  kinase still bound, per cent of control: 100%
[9]
  kinase still bound, per cent of control: 100%
[10]
  kinase still bound, per cent of control: 100%
[11]
  kinase still bound, per cent of control: 58%
[12]
  kinase still bound, per cent of control: 78%
[13]
  kinase still bound, per cent of control: 97%
[14]
  kinase still bound, per cent of control: 100%
[15]
  kinase still bound, per cent of control: 81%
[16]
  kinase still bound, per cent of control: 75%
[17]
  kinase still bound, per cent of control: 75%
[18]
  kinase still bound, per cent of control: 66%
[19]
  kinase still bound, per cent of control: 100%
[20]
  kinase still bound, per cent of control: 100%
[21]
  kinase still bound, per cent of control: 100%
[22]
  kinase still bound, per cent of control: 83%
[23]
  kinase still bound, per cent of control: 100%
[24]
  kinase still bound, per cent of control: 100%
[25]
  kinase still bound, per cent of control: 84%
[26]
  kinase still bound, per cent of control: 70%
[27]
  kinase still bound, per cent of control: 100%
[28]
  kinase still bound, per cent of control: 100%
[29]
  kinase still bound, per cent of control: 100%
[30]
  kinase still bound, per cent of control: 59%
[31]
  kinase still bound, per cent of control: 100%
[32]
  kinase still bound, per cent of control: 100%
[33]
  kinase still bound, per cent of control: 100%
[34]
  kinase still bound, per cent of control: 100%
[35]
  kinase still bound, per cent of control: 77%
[36]
  kinase still bound, per cent of control: 78%
[37]
  kinase still bound, per cent of control: 69%
[38]
  kinase still bound, per cent of control: 81%
[39]
  kinase still bound, per cent of control: 81%
[40]
  kinase still bound, per cent of control: 35%
